Measured values published in patent publication US7179615B1 (priority 1997, dated 2007).

Tests used:
[1] = tested on: cytoadherence of P. falciparum parasitised red cells to C32 melanoma cells; assay: C32 melanoma cell cytoadherence assay with SNO-cysteine-treated parasitised red cells; format: cell-based, Plasmodium falciparum; settings: Expt 5: JR strain, SNO-cysteine final concentration 5 mM, 40 minutes, parasitised red cells resuspended in 2% w/v borate
endothelial cells = settings: 0.2 mmol/l, 24 hours in conjunction with IL-1; cited from earlier work
VCAM-1 = settings: 0.2 mmol/l, 24 hours in conjunction with IL-1; cited from earlier work

N[C@@H](CSN=O)C(=O)O [SNO-cysteine]
binding (cytoadherence to C32 melanoma cells) [1]: 0%

N[C@@H](CCC(=O)N[C@@H](CSN=O)C(=O)NCC(=O)O)C(=O)O [SNO-glutathione]
endothelial toxicity (endothelial cells): minimal endothelial toxicity | inhibition of VCAM-1 (VCAM-1): maximal inhibition of VCAM-1
